This is an account of results in ChEMBL document CHEMBL1142468, “Discovery, SAR and X-ray structure of 1H-benzimidazole-5-carboxylic acid cyclohexyl-methyl-amides as inhibitors of inducible T-cell kinase (Itk)” (Bioorg Med Chem Lett, 2008).

In assay [1] the target is T1, Tyrosine-protein kinase ITK/TSK (Homo sapiens, UniProt Q08881).
T1 sequence (Q08881 whole entry): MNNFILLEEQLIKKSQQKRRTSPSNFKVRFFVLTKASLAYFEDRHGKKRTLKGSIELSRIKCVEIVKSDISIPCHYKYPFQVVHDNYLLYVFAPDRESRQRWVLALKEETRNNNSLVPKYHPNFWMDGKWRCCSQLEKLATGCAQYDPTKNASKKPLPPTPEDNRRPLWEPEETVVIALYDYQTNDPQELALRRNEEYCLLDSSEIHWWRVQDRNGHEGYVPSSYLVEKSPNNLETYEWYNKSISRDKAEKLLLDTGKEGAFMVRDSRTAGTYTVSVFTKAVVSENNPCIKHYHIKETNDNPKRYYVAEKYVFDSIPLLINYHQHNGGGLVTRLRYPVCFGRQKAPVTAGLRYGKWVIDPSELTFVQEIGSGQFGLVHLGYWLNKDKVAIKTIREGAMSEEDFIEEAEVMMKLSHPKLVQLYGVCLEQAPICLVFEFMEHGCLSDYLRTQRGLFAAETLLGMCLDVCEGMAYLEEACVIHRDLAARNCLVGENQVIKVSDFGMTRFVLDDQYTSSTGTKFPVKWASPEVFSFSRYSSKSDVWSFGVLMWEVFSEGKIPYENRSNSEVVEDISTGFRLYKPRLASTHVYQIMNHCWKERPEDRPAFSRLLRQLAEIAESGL
Kind of assay: Inhibition of ITK by DELFIA assay.

The target of assay [2] is Insulin receptor (Homo sapiens, UniProt P06213). Briefly: Inhibition of IRK.
Sequence of Insulin receptor (P06213 28-758 limits assumed): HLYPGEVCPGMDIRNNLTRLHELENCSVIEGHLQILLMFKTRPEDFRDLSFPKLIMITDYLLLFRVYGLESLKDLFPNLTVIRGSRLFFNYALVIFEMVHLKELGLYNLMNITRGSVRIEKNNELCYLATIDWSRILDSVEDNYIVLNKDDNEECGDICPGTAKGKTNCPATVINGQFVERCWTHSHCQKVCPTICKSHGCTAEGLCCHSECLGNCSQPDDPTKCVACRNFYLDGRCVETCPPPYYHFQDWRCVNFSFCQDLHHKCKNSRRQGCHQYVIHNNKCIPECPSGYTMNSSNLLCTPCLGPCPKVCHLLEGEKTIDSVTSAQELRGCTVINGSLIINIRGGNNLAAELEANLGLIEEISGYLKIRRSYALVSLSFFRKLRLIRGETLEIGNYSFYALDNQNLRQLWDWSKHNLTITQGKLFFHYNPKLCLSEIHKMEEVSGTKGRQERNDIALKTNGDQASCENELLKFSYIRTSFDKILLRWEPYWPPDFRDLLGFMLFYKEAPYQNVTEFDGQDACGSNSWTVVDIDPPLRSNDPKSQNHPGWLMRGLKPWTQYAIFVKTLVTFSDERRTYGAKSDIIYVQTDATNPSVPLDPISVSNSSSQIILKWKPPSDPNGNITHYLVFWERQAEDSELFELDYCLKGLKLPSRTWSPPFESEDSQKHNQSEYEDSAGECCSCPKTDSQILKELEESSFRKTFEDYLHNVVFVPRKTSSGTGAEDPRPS
Sequence of Insulin receptor (P06213 763-1382 limits assumed): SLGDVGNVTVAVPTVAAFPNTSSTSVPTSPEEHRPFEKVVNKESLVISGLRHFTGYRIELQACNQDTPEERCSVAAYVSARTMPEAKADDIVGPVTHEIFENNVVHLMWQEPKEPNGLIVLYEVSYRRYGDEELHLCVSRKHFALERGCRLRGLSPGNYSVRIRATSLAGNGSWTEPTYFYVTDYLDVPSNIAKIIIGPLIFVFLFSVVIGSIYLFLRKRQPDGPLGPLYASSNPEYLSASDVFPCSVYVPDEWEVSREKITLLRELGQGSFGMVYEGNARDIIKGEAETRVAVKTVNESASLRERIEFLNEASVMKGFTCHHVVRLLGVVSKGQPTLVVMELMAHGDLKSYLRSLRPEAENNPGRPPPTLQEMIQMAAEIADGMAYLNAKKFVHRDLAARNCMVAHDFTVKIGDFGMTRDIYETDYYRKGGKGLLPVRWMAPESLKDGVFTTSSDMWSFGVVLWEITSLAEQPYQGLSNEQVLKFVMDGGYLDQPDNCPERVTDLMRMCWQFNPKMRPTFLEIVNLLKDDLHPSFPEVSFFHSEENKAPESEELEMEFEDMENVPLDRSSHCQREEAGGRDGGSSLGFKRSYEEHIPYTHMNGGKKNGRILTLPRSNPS
Assay [3] addresses T1, Tyrosine-protein kinase ITK/TSK. Kind of assay: Inhibition of human ITK expressed in chicken DT40 cells assessed as B cell receptor-stimulated calcium influx by FLIPR assay. The assay is classed as cell-based.
Assay [4] deals with T-cell. Kind of assay: Inhibition of anti-CD3/anti-CD28-induced IL2 secretion in human CD4+ T cells.
Assay [5] in a line: Inhibition of anti-CD3-induced IL2 secretion in mouse TH1 cells.
Assay [6] relates to Mus musculus. Kind of assay: Inhibition of anti-CD3-induced IL2 production in sc dosed mouse. It counts as functional, organism-based.
The target in assay [7] is Tyrosine-protein kinase BTK (Homo sapiens) (UniProt Q06187). Briefly: Inhibition of Btk.
Sequence of Tyrosine-protein kinase BTK (Homo sapiens) (Q06187 whole entry): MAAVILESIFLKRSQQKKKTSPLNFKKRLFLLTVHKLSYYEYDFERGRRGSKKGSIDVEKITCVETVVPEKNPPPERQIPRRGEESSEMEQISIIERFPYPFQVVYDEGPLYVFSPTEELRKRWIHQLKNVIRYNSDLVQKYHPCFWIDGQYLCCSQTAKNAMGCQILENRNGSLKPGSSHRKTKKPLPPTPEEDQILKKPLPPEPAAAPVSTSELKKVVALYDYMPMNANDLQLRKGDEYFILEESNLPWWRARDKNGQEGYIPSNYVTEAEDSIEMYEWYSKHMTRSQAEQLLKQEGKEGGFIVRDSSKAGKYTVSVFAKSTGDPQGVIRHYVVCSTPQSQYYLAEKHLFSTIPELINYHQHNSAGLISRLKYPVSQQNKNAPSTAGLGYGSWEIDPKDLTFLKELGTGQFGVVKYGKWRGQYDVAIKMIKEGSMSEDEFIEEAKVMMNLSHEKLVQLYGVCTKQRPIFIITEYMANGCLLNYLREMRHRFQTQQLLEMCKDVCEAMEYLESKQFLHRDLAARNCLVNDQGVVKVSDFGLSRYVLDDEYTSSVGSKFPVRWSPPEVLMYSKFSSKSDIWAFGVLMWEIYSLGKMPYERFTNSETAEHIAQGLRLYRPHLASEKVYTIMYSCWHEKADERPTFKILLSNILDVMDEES
Assay [8] has as its target Tyrosine-protein kinase SYK (Homo sapiens) (UniProt P43405). Kind of assay: Inhibition of Syk.
Assay [9] concerns the target Tyrosine-protein kinase Lyn (Homo sapiens) (UniProt P07948). Kind of assay: Inhibition of Lyn kinase.
Assay [10] concerns Splenocyte. Briefly: Inhibition of anti-CD3-induced IL2 secretion in mouse splenocytes.

The structures appear in SMILES notation. Activity calls are given as the source filed them. The calls are words filed in the database; no cut-off is given here.

Sequence of Tyrosine-protein kinase Lyn (Homo sapiens) (P07948 2-512 limits assumed): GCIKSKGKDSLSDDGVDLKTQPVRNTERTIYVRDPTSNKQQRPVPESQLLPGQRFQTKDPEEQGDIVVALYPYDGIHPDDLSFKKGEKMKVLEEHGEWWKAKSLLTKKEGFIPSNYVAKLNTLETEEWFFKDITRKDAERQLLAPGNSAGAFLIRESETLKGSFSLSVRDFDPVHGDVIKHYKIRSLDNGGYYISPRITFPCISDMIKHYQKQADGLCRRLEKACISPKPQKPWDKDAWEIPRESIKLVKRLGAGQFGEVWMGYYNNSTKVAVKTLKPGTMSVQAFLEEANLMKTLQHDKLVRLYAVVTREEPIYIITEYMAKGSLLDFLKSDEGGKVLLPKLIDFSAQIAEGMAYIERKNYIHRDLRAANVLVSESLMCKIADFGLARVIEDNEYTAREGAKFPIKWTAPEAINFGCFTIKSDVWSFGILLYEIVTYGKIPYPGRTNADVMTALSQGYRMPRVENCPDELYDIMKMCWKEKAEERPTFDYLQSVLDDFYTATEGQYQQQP

For orientation: IC50 means the concentration needed to halve the response being measured. Compound `CC(C)n1c(NC(=O)c2ccc(C#N)cc2)nc2cc(N(C)C(=O)C3CCCCC3)ccc21` returned a concentration for half-maximal inhibition (IC50) in assay [1] of 35 nM.

For the compound `CN(C(=O)C1CCCCC1)c1ccc2c(c1)nc(NC(=O)c1ccc(Br)cc1)n2CCC(N)=O`, the IC50 is 3 nM in [1] and more than 10000 nM in assay [2].

As for `CN(C(=O)C1CCCCC1)c1ccc2c(c1)nc(NC(=O)c1cccc(Br)c1)n2CCC(N)=O`, the IC50 in assay [1] turned out to be 9 nM; in assay [2], 95 nM.

`CC(C)C(=O)N(C)c1ccc2c(c1)nc(NC(=O)c1ccc(C#N)cc1)n2CCC(N)=O` returned an IC50 in assay [1] of 220 nM.

Consider `CN(C(=O)C1CCCCC1)c1ccc2c(c1)nc(NC(=O)c1ccc(C#N)cc1)n2CCCn1ccnc1`, for which the IC50 in assay [3] is 510 nM; in assay [1], 4 nM; in [4], 650 nM; in assay [5] it was 350 nM.

Take `COCCCn1c(NC(=O)c2ccc(C#N)cc2)nc2cc(N(C)C(=O)C3CCCCC3)ccc21`: half-maximal inhibition in assay [1] (IC50) was put at 16 nM.

Regarding `CN(C(=O)C1CCCCC1)c1ccc2c(c1)nc(CC(=O)c1ccc(Cl)cc1)n2CCc1ccccc1`, the half-maximal inhibitory concentration (IC50) in [1] is more than 20000 nM.

In assay [1], `CN(C(=O)C1CCCCC1)c1ccc2c(c1)nc(NC(=O)c1ccc(C#N)cc1)n2CC(N)=O` displayed an IC50 of 73 nM.

`CN(C(=O)C1CCCCC1)c1ccc2c(c1)nc(NC(=O)c1cccc(C#N)c1)n2CCC(N)=O` displayed a half-maximal inhibitory concentration (IC50) in assay [2] of 125 nM.

For `Cc1ccc(C(=O)Nc2nc3cc(N(C)C(=O)C4CCCCC4)ccc3n2CCC(N)=O)cc1`, the IC50 in [2] is more than 10000 nM.

Take `CN(C(=O)C1CCCCC1)c1ccc2c(c1)nc(N)n2CCC(N)=O`: the concentration for half-maximal inhibition (IC50) in [1] was more than 20000 nM.

With `CC(=O)N1CCN(C(=O)c2cc(CSc3cnc(NC(=O)c4ccc(CNC(C)C(C)(C)C)cc4)s3)cc(C)c2C)CC1` (stereo not drawn), in assay [6], the Activity result is “Dose-dependent effect”.

`COc1ccc(C(=O)Nc2nc3cc(N(C)C(=O)C4CCCCC4)ccc3n2CCC(N)=O)cc1` yielded a concentration for half-maximal inhibition (IC50) in assay [2] of more than 10000 nM.

In assay [2], `COc1cccc(C(=O)Nc2nc3cc(N(C)C(=O)C4CCCCC4)ccc3n2CCC(N)=O)c1` gave a 50% inhibitory concentration (IC50) of 550 nM.

`CNc1ccc2c(c1)nc(NC(=O)c1ccc(C#N)cc1)n2CCC(N)=O` registered an IC50 in assay [1] of 76 nM.

As for `CN(C(=O)C1CCCCC1)c1ccc2c(c1)nc(NC(=O)c1cccs1)n2CCC(N)=O`, the result in assay [7], in [8] and in assay [9] was inactive.

The compound `CNC(=O)CCn1c(NC(=O)c2ccc(C#N)cc2)nc2cc(N(C)C(=O)C3CCCCC3)ccc21` showed an IC50 in [1] of 9 nM.

For the compound `CN(C(=O)C1CCCCC1)c1ccc2c(c1)nc(NC(=O)c1ccc(Cl)cc1)n2CCC(N)=O`, the IC50 turned out to be 4100 nM in assay [4], 440 nM in assay [5] and 520 nM in [10].

On to `CC(C(=O)C1CCCCC1)c1ccc2c(c1)nc(CC(=O)c1ccc(C#N)cc1)n2CCC(N)=O` (stereo not drawn), for which, in assay [1], the midpoint of inhibition, the IC50, lay at 3 nM.

In the case of `CC(=O)c1ccc(C(=O)Nc2nc3cc(N(C)C(=O)C4CCCCC4)ccc3n2CCC(N)=O)cc1`, the half-maximal inhibitory concentration (IC50) in assay [2] was more than 10000 nM.

`Cc1cccc(C(=O)Nc2nc3cc(N(C)C(=O)C4CCCCC4)ccc3n2CCC(N)=O)c1` registered a half-maximal inhibitory concentration (IC50) in [2] of 550 nM.

`CCCCCCCn1c(NC(=O)c2ccc(C#N)cc2)nc2cc(N(C)C(=O)C3CCCCC3)ccc21`: inhibition in [1] was half-maximal at 4500 nM (IC50).

Consider `CN(C(=O)C1CCCCC1)c1ccc2c(c1)nc(NC(=O)c1ccc(C#N)cc1)n2CCc1ccc(Cl)cc1Cl`, for which it took 2000 nM to reach half-maximal inhibition in assay [1] (IC50).

As for `CNC(=O)c1ccc(C(=O)Nc2nc3cc(N(C)C(=O)C4CCCCC4)ccc3n2CCC(N)=O)cc1`, it took 1800 nM to reach half-maximal inhibition in assay [1] (IC50).
